Data from US20110245190A1, “METHOD FOR IMPROVING POST SURGERY VISUAL ACUITY OUTCOME WITH AZITHROMYCIN” (priority 2009, published 2011).

Test system: patients with contact lens-related dry eye disease (CLDE)
Experiment: Study of azithromycin 1% ophthalmic solution vs rewetting drops over four weeks in contact lens-related dry eye disease (Example 2)
Assay type: in vivo, human
Excerpt: The objective of this study is to compare the efficacy of study drug, AZASITE® (azithromycin ophthalmic solution) 1%, versus rewetting drops (Visine for Contacts™) over a four week treatment period in patients with contact lens-related dry eye disease (CLDE).
Subjects are 18 years of age or older. Subjects have a positive diagnosis of CLDE based on their responses to the Contact Lens Dry Eye Questionnaire (CLDEQ, Nichols et al, Cornea 21:469-75 (2002)) and a score of ≧2, (i.e., moderate severity on a 0-4 scale, where 0=no ocular dryness and 4=very severe ocular dryness) on a self-reported assessment of ocular dryness at the screening Visit. A total of 50 subjects are enrolled in the study.
Subjects were asked to rate their level of ocular dryness on a 0-4 scale. Tear osmolarity was then assessed for each eye using the TearLab Osmolarity System®. Subjects were then instructed to remove their contact lenses and slit-lamp biomicroscopy and external eye exams were performed. Fluorescein corneal staining was then performed on each eye (5 μl of 2% fluorescein applied to the ocular surface) and graded according to National Eye Institute (NEI) criteria.
Eligible subjects were then randomized to receive either azithromycin 1% ophthalmic solution (AzaSite®), or rewetting drops (Visine for Contacts™) in a 1:1 ratio and they were not masked as to the treatment assignment. Subjects randomized to azithromcyin 1% were instructed to administer one drop to each eye BID for the first two days and then one drop QD for days 3-29. Subjects randomized to rewetting drops were instructed to administer one to two drops QID throughout the 29 day treatment period. The first dose of study medication was self-administered at the clinic once dosing instructions were provided. […]
Concomitant medication usage was recorded, an AE query performed, study medication and diary cards were collected. Subjects underwent habitual HCVA and LCVA assessment, completed the CLDEQ, and had tear osmolarity readings measured prior to removing their contact lenses. […]

CC[C@H]1OC(=O)[C@H](C)[C@@H](O[C@H]2C[C@@](C)(OC)[C@@H](O)[C@H](C)O2)[C@H](C)[C@@H](O[C@@H]2O[C@H](C)C[C@H](N(C)C)[C@H]2O)[C@](C)(O)C[C@@H](C)CN(C)[C@H](C)[C@@H](O)[C@]1(C)O [azithromycin]
mean ocular dryness scores, AM assessment (FIG. 2, prior to instilling study medication): lower | mean ocular dryness scores, PM assessment (FIG. 3, prior to lens removal): lower | mean daily duration of comfortable contact lens wear time (each of the weekly endpoints (Weeks 1-4), FIG. 1): longer
